What was measured:
TLR7 = biological target: T1, TLR7 (Homo sapiens, UniProt Q9NYK1); assay: In vitro human TLR7 binding reporter assay (HEK-Blue, NF-kB/AP1-inducible SEAP); assay type: cell-based; details: activity range symbols
T1 construct: host or cells: HEK-Blue cells (human HEK) co-expressing TLR7 and an NF-kB/AP1-inducible SEAP reporter
T1 sequence (Q9NYK1 27-1049): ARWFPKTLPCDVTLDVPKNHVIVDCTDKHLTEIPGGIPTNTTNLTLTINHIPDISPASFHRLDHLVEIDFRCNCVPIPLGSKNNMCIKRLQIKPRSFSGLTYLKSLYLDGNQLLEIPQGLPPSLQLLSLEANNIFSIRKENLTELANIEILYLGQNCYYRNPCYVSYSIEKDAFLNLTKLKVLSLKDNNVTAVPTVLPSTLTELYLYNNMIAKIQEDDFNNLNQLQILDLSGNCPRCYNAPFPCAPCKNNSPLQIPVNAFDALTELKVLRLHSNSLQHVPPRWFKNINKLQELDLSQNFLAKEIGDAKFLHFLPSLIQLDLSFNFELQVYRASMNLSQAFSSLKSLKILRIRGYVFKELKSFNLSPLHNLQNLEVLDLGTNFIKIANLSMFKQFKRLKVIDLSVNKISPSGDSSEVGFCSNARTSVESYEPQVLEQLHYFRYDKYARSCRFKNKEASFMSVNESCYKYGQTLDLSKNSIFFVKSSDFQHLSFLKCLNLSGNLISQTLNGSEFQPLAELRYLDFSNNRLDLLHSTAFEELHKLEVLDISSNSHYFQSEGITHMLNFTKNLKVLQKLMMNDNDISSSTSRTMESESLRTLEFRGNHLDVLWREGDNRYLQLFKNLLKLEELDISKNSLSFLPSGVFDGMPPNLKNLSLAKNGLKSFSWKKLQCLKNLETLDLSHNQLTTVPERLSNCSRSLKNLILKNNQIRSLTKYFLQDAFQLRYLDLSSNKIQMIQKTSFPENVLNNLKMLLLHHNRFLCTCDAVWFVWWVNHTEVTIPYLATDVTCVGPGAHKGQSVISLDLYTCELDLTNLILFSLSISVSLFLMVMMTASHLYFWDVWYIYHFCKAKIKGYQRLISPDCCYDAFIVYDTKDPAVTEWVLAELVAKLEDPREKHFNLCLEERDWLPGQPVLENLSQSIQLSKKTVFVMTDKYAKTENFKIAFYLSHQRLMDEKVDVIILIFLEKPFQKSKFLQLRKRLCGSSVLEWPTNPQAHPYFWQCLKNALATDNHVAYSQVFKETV
Outline: (§1)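 Reporter cells are plated at 15,000 per well and rested 24 h. Next day, test compounds or DMSO are dispensed, followed by 18 h incubation at 37 °C, 5% CO2.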

TLR8 = biological target: T2, TLR8 (Homo sapiens, UniProt Q9NR97); assay: In vitro human TLR8 binding reporter assay (HEK-Blue, NF-kB/AP1-inducible SEAP); assay type: cell-based; details: activity range symbols
T2 construct: host or cells: HEK-Blue cells (human HEK) co-expressing TLR8 and an NF-kB/AP1-inducible SEAP reporter
T2 sequence (Q9NR97 27-1041): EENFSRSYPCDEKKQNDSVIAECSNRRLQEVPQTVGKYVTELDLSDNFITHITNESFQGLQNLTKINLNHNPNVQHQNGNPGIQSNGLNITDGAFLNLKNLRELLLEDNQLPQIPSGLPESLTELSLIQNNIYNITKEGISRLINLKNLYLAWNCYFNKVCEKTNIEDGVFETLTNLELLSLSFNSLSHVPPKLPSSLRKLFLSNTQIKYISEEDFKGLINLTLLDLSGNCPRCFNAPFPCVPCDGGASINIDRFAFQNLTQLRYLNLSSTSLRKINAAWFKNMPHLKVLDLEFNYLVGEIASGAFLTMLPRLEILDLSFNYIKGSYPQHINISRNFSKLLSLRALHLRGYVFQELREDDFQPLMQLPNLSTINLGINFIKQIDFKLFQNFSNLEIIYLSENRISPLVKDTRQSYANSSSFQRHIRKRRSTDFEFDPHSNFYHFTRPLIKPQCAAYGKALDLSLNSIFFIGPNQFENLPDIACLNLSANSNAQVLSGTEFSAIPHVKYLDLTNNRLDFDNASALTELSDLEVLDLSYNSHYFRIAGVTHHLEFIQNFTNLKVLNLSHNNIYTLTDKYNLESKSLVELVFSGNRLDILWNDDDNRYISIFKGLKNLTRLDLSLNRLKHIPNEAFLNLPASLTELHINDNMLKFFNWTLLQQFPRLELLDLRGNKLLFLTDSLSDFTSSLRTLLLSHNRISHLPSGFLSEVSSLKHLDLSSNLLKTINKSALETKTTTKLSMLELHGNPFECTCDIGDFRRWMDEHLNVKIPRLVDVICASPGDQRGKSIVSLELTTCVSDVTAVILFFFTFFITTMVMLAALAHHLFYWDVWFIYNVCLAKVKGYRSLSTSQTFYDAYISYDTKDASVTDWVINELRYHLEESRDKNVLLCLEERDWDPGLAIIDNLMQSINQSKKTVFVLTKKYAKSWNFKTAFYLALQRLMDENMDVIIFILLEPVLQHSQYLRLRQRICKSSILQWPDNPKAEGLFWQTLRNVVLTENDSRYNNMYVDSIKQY
Outline: as §1

Row | Structure (SMILES) | EC50 (TLR7) [µM] | EC50 (TLR8) [µM]
1 | CCn1c(CN2CCCC2=O)nc2c(N)nc3cc(-c4cccs4)ccc3c21 [Compound 463, 1-{[4-amino-1-ethyl-7-(thiophen-2-yl)-1H-imidazo[4,5-c]quinolin-2-yl]methyl}pyrrolidin-2-one] | > 100 | > 100
2 | CCNCc1nc2c(N)nc3cc(-c4ccn[nH]4)ccc3c2n1CC [Compound 464, 1-ethyl-2-[(ethylamino)methyl]-7-(1H-pyrazol-5-yl)-1H-imidazo[4,5-c]quinolin-4-amine] | > 100 | > 100
3 | CCn1c(CN2CCCC2=O)nc2c(N)nc3cc(-n4cccn4)ccc3c21 [Compound 465, 1-{[4-amino-1-ethyl-7-(1H-pyrazol-1-yl)-1H-imidazo[4,5-c]quinolin-2-yl]methyl}pyrrolidin-2-one] | > 100 | > 100
4 | CCn1c(CN2CCCC2=O)nc2c(N)nc3cc(-c4ccn[nH]4)ccc3c21 [Compound 466, 1-{[4-amino-1-ethyl-7-(1H-pyrazol-5-yl)-1H-imidazo[4,5-c]quinolin-2-yl]methyl}pyrrolidin-2-one] | > 100 | > 100
5 | CCNCc1nc2c(N)nc3cc(-n4cccn4)ccc3c2n1CC [Compound 467, 1-ethyl-2-((ethylamino)methyl)-7-(1H-pyrazol-1-yl)-1H-imidazo[4,5-c]quinolin-4-amine] | > 100 | > 100
6 | CCNCc1nc2c(N)nc3cc(-c4cccs4)ccc3c2n1CC [Compound 468, 1-ethyl-2-[(ethylamino)methyl]-7-(thiophen-2-yl)-1H-imidazo[4,5-c]quinolin-4-amine] | > 100 | > 100
7 | Nc1nc2cc(-c3cccs3)ccc2c2c1nc(CN1CCCC1=O)n2CCO [Compound 469, 1-{[4-amino-1-(2-hydroxyethyl)-7-(thiophen-2-yl)-1H-imidazo[4,5-c]quinolin-2-yl]methyl}pyrrolidin-2-one] | > 100 | > 100
8 | CCC(=O)N(CC)Cc1nc2c(N)nc3cc(-c4cccs4)ccc3c2n1CCO [Compound 470, N-{[4-amino-1-(2-hydroxyethyl)-7-(thiophen-2-yl)-1H-imidazo[4,5-c]quinolin-2-yl]methyl}-N-ethylpropanamide] | > 100 | > 100
9 | CCNCc1nc2c(N)nc3cc(-c4cccs4)ccc3c2n1CCO [Compound 471, 2-{4-amino-2-[(ethylamino)methyl]-7-(thiophen-2-yl)-1H-imidazo[4,5-c]quinolin-1-yl}ethan-1-ol] | > 100 | > 100
10 | CCN(Cc1nc2c(N)nc3cc(-c4cccs4)ccc3c2n1CC)C(C)=O [Compound 472, N-{[4-amino-1-ethyl-7-(thiophen-2-yl)-1H-imidazo[4,5-c]quinolin-2-yl]methyl}-N-ethylacetamide] | > 100 | > 100
11 | CCC(=O)N(CC)Cc1nc2c(N)nc3cc(-c4ccn[nH]4)ccc3c2n1CC [Compound 473, N-{[4-amino-1-ethyl-7-(1H-pyrazol-5-yl)-1H-imidazo[4,5-c]quinolin-2-yl]methyl}-N-ethylpropanamide] | > 100 | > 100
12 | CCN(Cc1nc2c(N)nc3cc(-c4ccn[nH]4)ccc3c2n1CC)C(C)=O [Compound 474, N-{[4-amino-1-ethyl-7-(1H-pyrazol-5-yl)-1H-imidazo[4,5-c]quinolin-2-yl]methyl}-N-ethylacetamide] | > 100 | > 100
13 | CCC(=O)N(CC)Cc1nc2c(N)nc3cc(-c4ccn[nH]4)ccc3c2n1CCO [Compound 475, N-{[4-amino-1-(2-hydroxyethyl)-7-(1H-pyrazol-5-yl)-1H-imidazo[4,5-c]quinolin-2-yl]methyl}-N-ethylpropanamide] | > 100 | > 100
14 | CCN(Cc1nc2c(N)nc3cc(-n4cccn4)ccc3c2n1CCO)C(C)=O [Compound 476, N-{[4-amino-1-(2-hydroxyethyl)-7-(1H-pyrazol-1-yl)-1H-imidazo[4,5-c]quinolin-2-yl]methyl}-N-ethylacetamide] | > 100 | > 100
15 | CCNCc1nc2c(N)nc3cc(-n4cccn4)ccc3c2n1CCO [Compound 477, 2-[4-amino-2-[(ethylamino)methyl]-7-(1H-pyrazol-1-yl)-1H-imidazo[4,5-c]quinolin-l-yl]ethan-1-ol] | > 100 | > 100
16 | CCC(=O)N(CC)Cc1nc2c(N)nc3cc(-n4cccn4)ccc3c2n1CCO [Compound 478, N-{[4-amino-1-(2-hydroxyethyl)-7-(1H-pyrazol-1-yl)-1H-imidazo[4,5-c]quinolin-2-yl]methyl}-N-ethylpropanamide] | > 100 | > 100
17 | CCN(Cc1nc2c(N)nc3cc(-n4cccn4)ccc3c2n1CC)C(C)=O [Compound 479, N-{[4-amino-1-ethyl-7-(1H-pyrazol-1-yl)-1H-imidazo[4,5-c]quinolin-2-yl]methyl}-N-ethylacetamide] | > 100 | > 100
18 | CCC(=O)N(CC)Cc1nc2c(N)nc3cc(-c4cccs4)ccc3c2n1CC [Compound 480, N-{[4-amino-1-ethyl-7-(thiophen-2-yl)-1H-imidazo[4,5-c]quinolin-2-yl]methyl}-N-ethylpropanamide] | > 100 | > 100
19 | CCC(=O)N(CC)Cc1nc2c(N)nc3cc(-n4cccn4)ccc3c2n1CC [Compound 481, N-{[4-amino-1-ethyl-7-(1H-pyrazol-1-yl)-1H-imidazo[4,5-c]quinolin-2-yl]methyl}-N-ethylpropanamide] | > 100 | > 100
20 | CCN(Cc1nc2c(N)nc3cc(-c4cccs4)ccc3c2n1CCO)C(C)=O [Compound 482, N-{[4-amino-1-(2-hydroxyethyl)-7-(thiophen-2-yl)-1H-imidazo[4,5-c]quinolin-2-yl]methyl}-N-ethylacetamide] | > 100 | > 100

Reference: patent US12351580B2, “NLRP3 modulators” (Innate Tumor Immunity, Inc., priority 2017, dated 2025)
